# Experimental data as given in US20230175029A1, “ENZYME CASCADES BASED ON SUCROSE SYNTHASE AND PYROPHO[…] CONVERSION OF ADP TO ATP” (RHEINISCH-WE[…]-NISCHE HOCHSCHULE (RWTH) AACHEN, priority 2020, published 2023).
# Experiments:
# [1] = biological target: T1, EcAGPase (Escherichia coli, UniProt P0A6V1); test: Influence of Fru-1,6-P2 concentration on activity of EcAGPase; type: biochemical, E. coli; parameters: His6; made in house; host or cells: E. coli BL21 (DE3), vector pET22b; conditions: for EcAGPase activity: 3 mM ADP-Glc, 3 mM PPi, pH 8, 37° C.
# T1 sequence (P0A6V1 whole entry): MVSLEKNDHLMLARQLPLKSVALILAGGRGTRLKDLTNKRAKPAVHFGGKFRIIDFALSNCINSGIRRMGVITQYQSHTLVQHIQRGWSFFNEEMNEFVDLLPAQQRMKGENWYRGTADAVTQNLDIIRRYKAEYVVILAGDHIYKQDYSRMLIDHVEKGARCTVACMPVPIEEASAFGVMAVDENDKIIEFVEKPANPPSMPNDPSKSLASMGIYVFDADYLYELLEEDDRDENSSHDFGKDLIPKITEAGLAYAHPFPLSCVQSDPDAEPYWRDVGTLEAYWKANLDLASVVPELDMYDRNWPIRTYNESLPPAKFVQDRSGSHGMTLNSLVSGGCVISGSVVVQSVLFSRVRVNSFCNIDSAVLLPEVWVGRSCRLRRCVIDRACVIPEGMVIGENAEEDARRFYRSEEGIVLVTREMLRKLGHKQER
# Procedure: Fru-1,6-P2 was used as an activator for EcAGPase. It is Fru-1,6-P2 a relatively expensive compound and its use in the EcAGPase reaction should be reduced as much as possible. Therefore, the activity of EcAGPase was investigated for different Fru-1,6-P2 concentrations to determine a minimum concentration of the activator.
# The experiment included 3.9 μg/mL EcAGPase, 3 mM ADP-Glc, 3 mM PPi, 10 mM MgCl2 and Fru-1,6-P2 at concentrations ranging from 0.1 mM to 1 mM, as well as a control reaction without Fru-1,6-P2.
# [2] = biological target: T1, EcAGPase; test: Effect of Glc-1-P on ATP synthesis activity of EcAGPase; type: biochemical, E. coli; parameters: His6; made in house; host or cells: E. coli BL21 (DE3), vector pET22b; conditions: 3 mM ADP-Glc, 3 mM PPi
# Text: The EcAGPase prefers the ADP-Glc synthesis. Thus, the accumulation of Glc-1-P negatively affects the reaction equilibrium for ATP synthesis. Therefore, the effect of Glc-1-P on the ATP synthesis activity of EcAGPase was investigated.
# [3] = biological target: T1, EcAGPase; conditions: 2.5 mM ADP-Glc, 1 mM Fru-1,6-P2, pH 8, 37° C.
# Procedure: The influence of PPi concentrations on the ATP synthesis activity of the EcAGPase used was investigated.
# The experiment included 4.35 μg/mL EcAGPase, 2.5 mM ADP-Glc, 10 mM MgCl2, 1 mM Fru-1,6-P2 and PPi, at concentrations ranging from 0.75 mM to 10 mM, and a control reaction without PPi. ATP synthesis was performed in 600 μL of 100 mM HEPES buffer, pH 8 at 37° C. for 12 min. The synthesis was stopped at the respective measurement points with 28 mM SDS (final concentration 7 mM) and the analysis of the nucleotides (ADP-Glc, AMP, ADP, ATP) was performed by multiplex capillary electrophoresis (internal standards (final concentrations): 1 mM para-aminobenzoic acid and 1 mM 4-aminophthalic acid) and the analytes were detected at 254 nm.
smiles,measurement,setting,value
"O=C(COP(=O)(O)O)[C@@H](O)[C@H](O)[C@H](O)COP(=O)(O)O [Fru-1,6-P2, fructose-1,6-bisphosphate]",EcAGPase activity,"[1]; 0.25 mM Fru-1,6-P2",20 U/mg
same,"EcAGPase activity, fold higher than without activator","[1]; 0.5 mM Fru-1,6-P2",12 fold
same,EcAGPase activity,"[1]; 0.5 mM Fru-1,6-P2",60 U/mg
"O=P(O)(O)O[C@H]1O[C@H](CO)[C@@H](O)[C@H](O)[C@H]1O [Glc-1-P, glucose-1-phosphate]",activity of the enzyme relative to activity without addition of Glc-1-P,"[2]; 1 mM Glc-1-P, 0.5 mM Fru-1,6-P2",71%
same,IC50,"[2]; 0.5 mM Fru-1,6-P2, pH 8, 37° C.",1780 µM
same,residual activity,"[2]; 5 mM Glc-1-P, 0.5 mM Fru-1,6-P2",27%
"O=P(O)(O)OP(=O)(O)O [PPi, inorganic pyrophosphate]",PPi concentration at which EcAGPase shows a reduction in specific activity,[3],above 3 mM
same,specific activity of EcAGPase,[3]; 7 mM PPi,0.6 U/mg
